In US12227517B2, “Pyridazinyl-thiazolecarboxamide compound” (Astellas Pharma Inc., priority 2019, dated 2025):
Structures can show the parent of a compound that is named as a salt.

Columns and labels:
B16-F1 cells = assay: Antitumor effect in syngeneic mouse model bearing mouse melanoma cell line B16-F1; assay type: in vivo; settings: relative tumor growth inhibition, B16-F1, oral, 1/day, 1 × 10^5 cells inoculated
Method: Test Example 4: Evaluation of Antitumor Effect in Syngeneic Mouse Model Bearing Mouse Melanoma Cell Line B16-F1
A cell suspension liquid prepared by suspending B16-F1 cells (ATCC, CRL-6323) in PBS at 2.0×10^6 cells/mL or 1.0×10^7 cells/mL was subcutaneously inoculated into 5-week-old female mice (C57BL/6J from Charles River Laboratories Japan, Inc.) in a volume of 50 μL. 5 days after the inoculation, the mice were grouped in such a manner that there was substantially no difference in tumor volume between groups, and administration of the test compound was started. The test was conducted with a solvent group and a test compound administration group each having 10 mice. 0.5% methylcellulose was orally administered to the solvent group, and 0.5% methylcellulose mixed with the test compound was orally administered to the test compound administration group. The administration was performed according to the regimen described in Table 4, and the tumor diameter and the body weight were measured twice a week. The following expression was used for calculation of the tumor volume. [tumor volume (mm^3)]=[tumor major diameter (mm)]×[tumor minor diameter (mm)]^2×0.5
The relative tumor growth inhibition (%) of the test compound was calculated, where the tumor volume of the test compound administration group immediately before the start of administration was set to 100% inhibition, and the tumor volume of the solvent group on the day after the last administration was set to 0% inhibition. […] In the table, Ex represents the number of each Example described below.

Jurkat E6.1 cells = assay: Evaluation of IL-2 production in human T cell leukemia cell line Jurkat E6.1 (TCR stimulation anti-CD3/anti-CD28); assay type: cell-based; settings: concentration at which IL-2 increased to 10 times the solvent control, Jurkat E6.1, anti-CD3/anti-CD28, 24 hours, read-out: EC10fold
Method: Test Example 2: Evaluation of IL-2 Production in Human T Cell Leukemia Cell Line Jurkat E6.1
The effect of the test compound on the IL-2 production by T cell receptor (TCR) stimulation (anti-CD3/anti-CD28) in Jurkat E6.1 cells (ECACC, 88042803) was evaluated.
A 5 μg/mL anti-CD3 antibody (eBioscience, Inc., OKT3 clone) diluted with phosphate buffer saline (PBS) was added to a 96-well plate (Iwaki & Co., Ltd.) at 50 μL/well, and left standing at 4° C. for 12 hours or more to provide an anti-CD3 antibody-coated plate in advance. When the plate was used for experiments, the plate was washed with 200 μL of PBS once, an anti-CD28 antibody (eBioscience, Inc., 28.2 clone) diluted to a concentration of […] with a culture medium (RPMI1640 (Sigma-Aldrich Co. LLC.) containing 10% fetal bovine serum (Hyclone Laboratories, Inc.)) was then added at 10 μL/well, and the plate was used for assay as a culture plate for TCR stimulation.
Subsequently, the test compound was mixed with Jurkat E6.1 cells in such a manner that an intended final concentration was obtained, and the mixture was plated at 90 μL/well so that the number of cells per well was 1×10^5 (that is, finally the culture was performed at 1×10^5 cells/100 μL/well). For culture cell conditions, the culture was performed at 37° C. in the presence of 5% CO2 using RPMI1640 medium containing 10% fatal bovine serum.
After 24 hours, the culture supernatant was collected, and IL-2 was quantitatively determined using AlphaLISA human IL2 Immunoassay Research Kit (PerkinElmer, Inc.). The IL-2 measurement was performed under Alpha Screen standard setting conditions (the fluorescence intensity at 570 nm was measured with an excitation wavelength of 680 nm) using EnVision 2104-0010 and EnVision 2104-0020 (PerkinElmer, Inc.). The IL-2 quantitative value of the solvent treatment control was set to 1, and the test compound concentration at which the IL-2 quantitative value of the test compound treatment sample increased to 10 times the IL-2 quantitative value of the control (EC10fold) was calculated by inverse estimation with the aid of Sigmoid-Emax model non-linear regression analysis. […] In the table, Ex represents the number of each Example described below.

human recombinant DGK ξ = human recombinant DGK ξ (Homo sapiens (Human), UniProt Q13574); assay: Evaluation of DGK ξ inhibitory effect (ADP-Glo Kinase Assay); assay type: biochemical
human recombinant DGK ξ, sequence (Q13574 whole entry): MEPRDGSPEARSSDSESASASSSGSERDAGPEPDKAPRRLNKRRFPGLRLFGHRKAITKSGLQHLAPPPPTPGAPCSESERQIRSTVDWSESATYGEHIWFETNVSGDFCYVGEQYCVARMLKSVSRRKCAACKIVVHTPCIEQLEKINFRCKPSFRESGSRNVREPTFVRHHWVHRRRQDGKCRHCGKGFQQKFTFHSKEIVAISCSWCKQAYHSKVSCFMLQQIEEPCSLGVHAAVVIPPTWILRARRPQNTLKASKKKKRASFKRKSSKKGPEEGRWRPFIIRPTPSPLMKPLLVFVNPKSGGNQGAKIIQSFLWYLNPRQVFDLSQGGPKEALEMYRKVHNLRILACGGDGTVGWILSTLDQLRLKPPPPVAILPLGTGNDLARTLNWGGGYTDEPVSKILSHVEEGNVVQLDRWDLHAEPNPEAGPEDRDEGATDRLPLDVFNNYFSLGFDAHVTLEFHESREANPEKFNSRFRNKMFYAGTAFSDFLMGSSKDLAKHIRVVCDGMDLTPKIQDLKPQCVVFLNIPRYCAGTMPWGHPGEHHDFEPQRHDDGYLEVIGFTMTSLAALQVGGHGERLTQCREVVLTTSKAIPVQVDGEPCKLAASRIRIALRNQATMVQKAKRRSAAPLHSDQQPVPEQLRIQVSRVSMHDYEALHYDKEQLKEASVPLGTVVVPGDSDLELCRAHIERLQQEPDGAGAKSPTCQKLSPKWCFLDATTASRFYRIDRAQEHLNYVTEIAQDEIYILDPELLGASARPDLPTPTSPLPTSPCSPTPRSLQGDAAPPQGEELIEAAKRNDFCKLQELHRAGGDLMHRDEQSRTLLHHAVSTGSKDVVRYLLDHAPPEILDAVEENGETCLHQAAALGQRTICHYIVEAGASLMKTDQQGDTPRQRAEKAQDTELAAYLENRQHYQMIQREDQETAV
Method: Test Example 1: Evaluation of DGK ξ Inhibitory Effect
The inhibitory effect of a test compound on human recombinant DGK ξ (Carna Biosciences, Inc., 12-410-20N) was examined by the following method in which detection is performed with ADP-Glo™ Kinase Assay (Promega Corporation).
To a 384-well plate (Greiner Bio-One Co., Ltd.), 3 μL of a […] dissolved in an assay buffer (40 mM Tris-HCl pH 7.5, 10 mM MgCl2, 1 mM dithiothreitol (DTT) and 0.1 mg/mL bovine serum albumin (BSA)) (90 ng/mL) was added, and 3 μL of the test compound diluted with the same assay buffer was added so that an intended final concentration was obtained. The mixture was left standing at room temperature for 15 minutes, 3 μL of a substrate (150 μM 1-oleoyl-2-acetyl-sn-glycerol (Sigma-Aldrich Co. LLC.), 480 μM phosphatidylserine (Avanti Polar Lipids, Inc.) and 150 μM UltraPure-ATP (attached to ADP-Glo)) was then added, and the mixture was left standing at room temperature for 30 minutes to react. Thereafter, 3 μL of an ADP-Glo Reagent was added, and the mixture was left standing at room temperature for 40 minutes to stop the enzyme reaction. Further, 6 μL of a Kinase-Detection Reagent was added, the mixture was left standing at room temperature for 30 minutes, and the luminescence was then measured using ARVO X3 (PerkinElmer, Inc.). The half maximal inhibitory concentration (IC50) was calculated by Sigmoid-Emax model non-linear regression analysis, where the signal value in solvent treatment was set to 0% inhibition and the signal value without addition of the DGK ξ enzyme was set to 100% inhibition. […] In the table, Ex represents the number of each Example described below. Also, in the table, compound C (cpd. C) represents the test compound of the Example 199 described in the international publication WO 2008/054702.

Compound | IC50 (human recombinant DGK ξ) | other results
COCCN1CCC2(CC1)CN(c1c(NC(=O)c3csc(-c4ccnnc4)n3)ccc(Oc3ccccc3)c1C(F)(F)F)CCO2 [Example 59, N-{2-[9-(2-methoxyethyl)-1-oxa-4,9-diazaspiro[5.5]undecan-4-yl]-4-phenoxy-3-(trifluoromethyl)phenyl}-2-(pyridazin-4-yl)-1,3-thiazole-4-carboxamide dihydrochloride] | 2 nM | Antitumor effect (B16-F1 cells; 0.1 mg/kg, 8 days): 46% Inhibition; EC50 (Jurkat E6.1 cells): 36 nM
O=C(Nc1ccc(Oc2ccccc2)c(C(F)(F)F)c1N1CCOC2(CCN(C3COC3)CC2)C1)c1csc(-c2ccnnc2)n1 [Example 62, N-{2-[9-(oxetan-3-yl)-1-oxa-4,9-diazaspiro[5.5]undecan-4-yl]-4-phenoxy-3-(trifluoromethyl)phenyl}-2-(pyridazin-4-yl)-1,3-thiazole-4-carboxamide] | 10 nM | –
O=C(Nc1ccc(Oc2ccccc2F)c(C(F)(F)F)c1N1CCC[C@@H]1CNC1COC1)c1csc(-c2ccnnc2)n1 [Example 63, N-[4-(2-fluorophenoxy)-2-[(2R)-2-{[(oxetan-3-yl)amino]methyl}pyrrolidin-1-yl]-3-(trifluoromethyl)phenyl]-2-(pyridazin-4-yl)-1,3-thiazole-4-carboxamide] | 429 nM | –
CNCC1CCCN(c2c(NC(=O)c3csc(-c4ccnnc4)n3)ccc(Oc3ccccc3)c2C(F)(F)F)C1 (stereo not drawn) [Example 64, N-[2-{3-[(methylamino)methyl]piperidin-1-yl}-4-phenoxy-3-(trifluoromethyl)phenyl]-2-(pyridazin-4-yl)-1,3-thiazole-4-carboxamide] | 30 nM | –
CNC[C@H]1CN(c2c(NC(=O)c3csc(-c4ccnnc4)n3)ccc(Oc3ccccc3)c2C)CCN1C [Example 65] | 12 nM | –
NC[C@@H]1CCCN(c2c(NC(=O)c3csc(-c4ccnnc4)n3)ccc(S(=O)(=O)c3ccccc3)c2C(F)(F)F)C1 [Example 66] | 32 nM | –
NC[C@@H]1CCCN(c2c(NC(=O)c3csc(-c4ccnnc4)n3)ccc(Oc3ccccc3)c2C2CC2)C1 [Example 67] | 12 nM | –
COc1c(Oc2ccccc2)ccc(NC(=O)c2csc(-c3ccnnc3)n2)c1N1CCC[C@@H](CN)C1 [Example 68] | 5 nM | –
NC[C@@H]1CCCN(c2c(NC(=O)c3csc(-c4ccnnc4)n3)ccc(C(=O)c3ccccc3)c2C(F)(F)F)C1 [Example 70] | 7 nM | –
Cc1c(OC2CC2)ccc(NC(=O)c2csc(-c3ccnnc3)n2)c1N1CCC[C@@H](CN)C1 [Example 71] | 44 nM | –
Cc1c(Oc2ccccc2)ccc(NC(=O)c2csc(-c3ccnnc3)n2)c1N1CCC[C@@H](CN)C1 [Example 72] | 18 nM | –
CN[C@@H]1CCN2CCN(c3c(NC(=O)c4csc(-c5ccnnc5)n4)ccc(Oc4ccccc4)c3C(F)(F)F)C[C@@H]12 [Example 73] | 0.7 nM | –
N[C@H]1CCN2CCN(c3c(NC(=O)c4csc(-c5ccnnc5)n4)ccc(Oc4ccccc4)c3C(F)(F)F)C[C@@H]12 [Example 74] | 41 nM | –
N[C@H]1CCN2CCN(c3c(NC(=O)c4csc(-c5ccnnc5)n4)ccc(Oc4ccccc4)c3C(F)(F)F)C[C@H]12 [Example 75] | 6 nM | –
N[C@@H]1CCN2CCN(c3c(NC(=O)c4csc(-c5ccnnc5)n4)ccc(OC4CC4)c3C(F)(F)F)C[C@@H]12 [Example 76] | 6 nM | –
CN[C@@H]1CCN2CCN(c3c(NC(=O)c4csc(-c5ccnnc5)n4)ccc(OC4CC4)c3C(F)(F)F)C[C@@H]12 [Example 77] | 2 nM | –
N[C@@H]1CCN2CCN(c3c(NC(=O)c4csc(-c5ccnnc5)n4)ccc(Oc4ccccc4)c3C(F)(F)F)C[C@@H]12 [Example 78, N-{2-[(8R,8aS)-8-aminohexahydropyrrolo[1,2-a]pyrazine-2(1H)-yl]-4-phenoxy-3-(trifluoromethyl)phenyl}-2-(pyridazin-4-yl)-1,3-thiazole-4-carboxamide] | 5 nM | Antitumor effect (B16-F1 cells; 0.3 mg/kg, 10 days): 30% Inhibition; EC50 (Jurkat E6.1 cells): 27 nM
N[C@@H]1CCN2CCN(c3c(NC(=O)c4csc(-c5ccnnc5)n4)ccc(Oc4ccccc4)c3C(F)(F)F)C[C@H]12 [Example 79] | 47 nM | –
CN(C)[C@@H]1CCN2CCN(c3c(NC(=O)c4csc(-c5ccnnc5)n4)ccc(Oc4ccccc4)c3C(F)(F)F)C[C@@H]12 [Example 80] | 0.7 nM | Antitumor effect (B16-F1 cells; 0.03 mg/kg, 10 days): 30% Inhibition; EC50 (Jurkat E6.1 cells): 5 nM
CN(C)[C@H]1CCN2CCN(c3c(NC(=O)c4csc(-c5ccnnc5)n4)ccc(Oc4ccccc4)c3C(F)(F)F)C[C@H]12 [Example 81] | 152 nM | –
CN(C)[C@@H]1CCN2CCN(c3c(NC(=O)c4csc(-c5ccnnc5)n4)ccc(OC4CC4)c3C(F)(F)F)C[C@@H]12 [Example 82] | 3 nM | –
CNC[C@@H]1CCCN(c2c(NC(=O)c3csc(-c4ccnnc4)n3)ccc(Oc3ccccc3F)c2C(F)(F)F)C1 [Example 83, N-[4-(2-fluorophenoxy)-2-{(3S)-3-[(methylamino)methyl]piperidin-1-yl}-3-(trifluoromethyl)phenyl]-2-(pyridazin-4-yl)-1,3-thiazole-4-carboxamide mono[(2E)-but-2-enedioate]] | 5 nM | –
NC[C@@H]1CCCN(c2c(NC(=O)c3csc(-c4ccnnc4)n3)ccc(Oc3ccccc3)c2C(F)(F)F)C1 [Example 84, N-{2-[(3S)-3-(aminomethyl)piperidin-1-yl]-4-phenoxy-3-(trifluoromethyl)phenyl}-2-(pyridazin-4-yl)-1,3-thiazole-4-carboxamide mono[(2E)-but-2-enedioate]] | 6 nM | –
NC[C@@H]1CCCN(c2c(NC(=O)c3csc(-c4ccnnc4)n3)ccc(Oc3cccc(F)c3)c2C(F)(F)F)C1 [Example 85] | 15 nM | –
NC[C@@H]1CCCN(c2c(NC(=O)c3csc(-c4ccnnc4)n3)ccc(Oc3ccccc3F)c2C(F)(F)F)C1 [Example 86] | 3 nM | –
NC[C@H]1CCCN1c1c(NC(=O)c2csc(-c3ccnnc3)n2)ccc(Oc2ccccc2)c1C(F)(F)F [Example 87] | 20 nM | –
CNC1(C(N)=O)CCN(c2ccccc2NC(=O)c2csc(-c3ccnnc3)n2)CC1 [cpd. C, reference compound] | > 2000 nM | –
